Laboratory results published in publication PMC8143347, “Metabolism and Interspecies Variation of IMMH-010, a Programmed Cell Death Ligand 1 Inhibitor Prodrug” (Pharmaceutics, 2021).

How the values were obtained:
[1] = Metabolism in rat liver S9 fractions; assay type: in vitro ADME
Experimental: IMMH-010 metabolism was compared in human, monkey, dog, and rat liver S9 homogenates. IMMH-010 (10 μM) was incubated with liver S9 homogenate protein (0.5 mg protein/mL) and a reduced nicotinamide adenine dinucleotide phosphate (NADPH) regenerating system in a final volume of 0.2 mL Tris-HCl buffer (50 mM, pH 7.4) containing 5 mM MgCl2. The reactions were performed in triplicate. After 2 min of preincubation at 37 °C, reactions were initiated by the addition of IMMH-010 (10 μM). The samples were collected 0, 5, 10, and 20 min after incubation, 2 volumes of acetonitrile were added to terminate the reaction. After vortexing and centrifugation, IMMH-010, YPD-29B, M3, and M4 in the supernatant were analyzed by LC-MS/MS.
(§1) All statistics were calculated using GraphPad Prism 8.0 software (San Diego, CA, USA) designed for one-way ANOVA. Pharmacokinetic parameters were calculated with a non-compartmental analysis using WinNonlin Version 6.3 (Pharsight, Mountain View, CA, USA). ADMET predictor V10.0 (Simulations Plus, Inc., Lancaster, CA, USA) and Microsoft Excel (Microsoft, Redmond, WA, USA) were used to process the data (i.e., half-life (t1/2) and hepatic clearance (CLhep) determination). Data were expressed as means ± standard deviations (SD). Results were considered statistically significant if the p-value <0.05, <0.01 and <0.001.

B16F10 melanoma = assay: Antitumor activity in B16F10 melanoma xenograft model; assay type: in vivo, mouse
Experimental: (§2) The antitumor activity of IMMH-010 was evaluated by B16F10 melanoma and MC38 colon carcinoma xenograft models. The B16F10 and MC38 cells were resuspended in saline (1.5 × 10^6 cells/0.2 mL saline) and injected subcutaneously into the right flanks of each mouse on day 0. The treated mice received once-daily oral administration of IMMH-010 maleate (1.25, 2.5, 5, and 10 mg/kg, n = 10) by oral gavage (PO) for 19 consecutive days, whereas the control mice received vehicle (0.5% carboxymethyl cellulose, n = 10). The mice in the positive control group received the anti-mouse PD-L1 antibody (696618M2, Bio X Cell, West Lebanon, NH, USA) at 10 mg/kg intraperitoneally every 3 days (n = 10). The first-line antineoplastic drug cyclophosphamide (CTX) was administered at doses of 80 and 40 mg/kg weekly in the B16F10 and MC38 models (n = 10), respectively. After the last treatment, on day 19, the mice were sacrificed, and the tumor and spleen were stripped and weighed. The tumor growth inhibition (TGI) was calculated as TGI = (1 − treatment group tumor weight/vehicle group tumor weight) × 100.

MC38 colon carcinoma = assay: Antitumor activity in MC38 colon carcinoma xenograft model; assay type: in vivo, mouse
Experimental: as §2

[2] = Body weight in B16F10 model
Experimental: as §2

[3] = Body weight in MC38 model
Experimental: as §2

[4] = Plasma and tumor PK in B16F10 melanoma xenograft mice; assay type: in vivo, mouse; conditions: B16F10 mice, after last oral dose of IMMH-010 maleate 5 mg/kg
Experimental: After the final dose, tumor and blood samples treated with IMMH-010 maleate (5 mg/kg) were collected over 72 h. Blood was exposed in an EP tube containing 500 mM NaF and 0.5% heparin sodium. Plasma samples were obtained by centrifugation, and tumor tissues were homogenized with 3 volumes (w/v) of saline on ice. The concentration of IMMH-010 and YPD-29B in plasma and tumor samples was quantitated by an LC-MS/MS method.
(§3) LC-MS/MS was performed using a triple quadrupole mass spectrometer (API 4000, AB Sciex, Framingham, MA, USA) with an ultra-performance liquid chromatography system (LC-30A, Shimadzu, Kyoto, Japan). Analyst 1.6.2 software (AB Sciex) was used for data acquisition and analysis. Mobile phase A was 1 mM ammonium acetate and mobile phase B was methanol. The mobile phase was delivered with the following gradient elution profile: 0–2.8 min, 70% B; 2.9 min, 85% B; 3 min, 90% B; 3.1–6.8 min, 100% B; 6.9–12 min, 70% B. The flow rate was 0.3 mL/min, and the column oven was maintained at 35 °C. The specific transitions monitored were 641.3 → 494.2 for IMMH-010, 597 → 155 for YPD-29B, 512 → 247 for M3, and 524 → 246 for M4.
as §1

[5] = PK study in male cynomolgus monkeys; assay type: in vivo, cynomolgus monkey; conditions: cynomolgus monkey, plasma, single oral IMMH-010 maleate 5 mg/kg
Experimental: IMMH-010 maleate was suspended with 0.5% carboxymethyl cellulose to make a 1 mg/mL suspension for PO gavage. Four male cynomolgus monkeys received a single oral dose of IMMH-010 maleate (5 mg/kg). Serial blood samples were collected upto 48 h. The plasma was separated and the plasma concentrations of IMMH-010 and YPD-29B were determined by LC-MS/MS.
as §3, §1

PD-1/PD-L1 = conditions: stated in introduction, source not given; read-out: PD-L1 inhibitory activity IC50; cited from earlier work
[6] = B16F10, IMMH-010 maleate 1.25 mg/kg PO once daily 19 days
[7] = B16F10, IMMH-010 maleate 2.5 mg/kg PO once daily 19 days
[8] = B16F10, IMMH-010 maleate 5 mg/kg PO once daily 19 days
[9] = B16F10, IMMH-010 maleate 10 mg/kg PO once daily 19 days
[10] = MC38, IMMH-010 maleate 1.25 mg/kg PO once daily 19 days
[11] = MC38, IMMH-010 maleate 2.5 mg/kg PO once daily 19 days
[12] = MC38, IMMH-010 maleate 5 mg/kg PO once daily 19 days
[13] = MC38, IMMH-010 maleate 10 mg/kg PO once daily 19 days

## CC(C)OC(=O)[C@H](CO)NCc1cc(Cl)c(OCc2cccc(-c3ccccc3)c2Br)cc1OCc1cccnc1 [IMMH-010]
[1]; from rat liver S9
  estimated CLhep: 58.4 mL/min/kg
[1]; pH 7.4, rat liver S9 0.5 mg protein/mL, 10 μM, NADPH
  half-life at 10 μM: 7.1 min
B16F10 melanoma; [6]
  Tumor Weight (g) X ± SD: 1.78 ± 1.13 g
  Tumor Weight TGI (%): 23%
B16F10 melanoma; [7]
  Tumor Weight (g) X ± SD: 1.26 ± 0.85 g
  Tumor Weight TGI (%): 45%
B16F10 melanoma; [8]
  Tumor Weight (g) X ± SD: 1.39 ± 0.84 g
  Tumor Weight TGI (%): 40%
B16F10 melanoma; [9]
  Tumor Weight (g) X ± SD: 1.04 ± 0.66 g
  Tumor Weight TGI (%): 55%
MC38 colon carcinoma; [10]
  Tumor Weight (g) X ± SD: 1.03 ± 0.65 g
  Tumor Weight TGI (%): 40%
MC38 colon carcinoma; [11]
  Tumor Weight (g) X ± SD: 1.13 ± 0.78 g
  Tumor Weight TGI (%): 34%
MC38 colon carcinoma; [12]
  Tumor Weight (g) X ± SD: 0.42 ± 0.39 g
  Tumor Weight TGI (%): 75%
MC38 colon carcinoma; [13]
  Tumor Weight (g) X ± SD: 0.73 ± 0.54 g
  Tumor Weight TGI (%): 57%
[2]; [6]
  Body Weight (g) X ± SD Finish: 20.2 ± 1.4 g
[2]; B16F10, IMMH-010 maleate 1.25 mg/kg PO once daily
  Body Weight (g) X ± SD Start: 17.09 ± 0.63 g
[2]; [7]
  Body Weight (g) X ± SD Finish: 20.3 ± 1.2 g
[2]; B16F10, IMMH-010 maleate 2.5 mg/kg PO once daily
  Body Weight (g) X ± SD Start: 16.86 ± 0.57 g
[2]; [8]
  Body Weight (g) X ± SD Finish: 20.0 ± 1.2 g
[2]; B16F10, IMMH-010 maleate 5 mg/kg PO once daily
  Body Weight (g) X ± SD Start: 17.09 ± 0.81 g
[2]; [9]
  Body Weight (g) X ± SD Finish: 20.1 ± 1.0 g
[2]; B16F10, IMMH-010 maleate 10 mg/kg PO once daily
  Body Weight (g) X ± SD Start: 17.15 ± 0.50 g
[2]; B16F10 model, IMMH-010 maleate PO once a day for 19 days
  effect on body weight: without weight loss
[3]; [10]
  Body Weight (g) X ± SD Finish: 24.3 ± 2.1 g
[3]; MC38, IMMH-010 maleate 1.25 mg/kg PO once daily
  Body Weight (g) X ± SD Start: 22.2 ± 0.4 g
[3]; [11]
  Body Weight (g) X ± SD Finish: 25.3 ± 2.3 g
[3]; MC38, IMMH-010 maleate 2.5 mg/kg PO once daily
  Body Weight (g) X ± SD Start: 22.0 ± 0.6 g
[3]; [12]
  Body Weight (g) X ± SD Finish: 23.7 ± 1.8 g
[3]; MC38, IMMH-010 maleate 5 mg/kg PO once daily
  Body Weight (g) X ± SD Start: 21.9 ± 0.8 g
[3]; [13]
  Body Weight (g) X ± SD Finish: 25.0 ± 1.7 g
[3]; MC38, IMMH-010 maleate 10 mg/kg PO once daily
  Body Weight (g) X ± SD Start: 21.9 ± 0.7 g
[3]; MC38 model, IMMH-010 maleate PO once a day for 19 days
  effect on body weight: without weight loss
[4]
  concentration of IMMH-010 in plasma and tumor tissues: < 1 ng/mL
[5]
  AUC: 47.9 ng·h/mL
  Cmax: 9.46 ng/mL
[5]; read-out: mean t1/2β in plasma (converted)
  half-life: 5.16 h
[5]; read-out: observed time to peak concentration
  Tmax: ≤ 1.5 h
PD-1/PD-L1
  IC50: 10 to 100 nM
